Results as given in patent US10836764B2, “5-HT2C receptor agonists and compositions and methods of use” (Arena Pharmaceuticals, Inc., priority 2016, dated 2020).
Like-named read-outs stand apart in the source and are kept apart here.

Legend:
5-HT2C receptor [1] = biological target: T1, 5-HT2C receptor (Homo sapiens (Human), UniProt P28335); test: IP accumulation assay, 5-HT2C; format: cell-based
Method: (§1) HEK293 cells expressing recombinant 5-HT2 receptors were added to sterile poly-D-lysine-coated 96-well microtiter plates (35,000 cells/well) and labeled with 0.6 μCi/well of [^3H]inositol in myoinositol-free DMEM for 18 h. Unincorporated [^3H]inositol was removed by aspiration and replaced with fresh myoinositol-free DMEM supplemented with LiCl (10 mM final) and pargyline (10 μM final). Serially diluted test compounds were then added and incubation was conducted for 2 h at 37° C. (5-HT2B, and 5-HT2A) and RT (5-HT2C). Incubations were then terminated by lysing cells with the addition of ice-cold 0.1 M formic acid followed by freezing at −80° C. After thawing, total [^3H]inositol phosphates were resolved from [^3H]inositol using AG1-X8 ion exchange resin (Bio-Rad) and [^3H]inositol phosphates were measured by scintillation counting using a Perkin Elmer TopCount® scintillation counter. All EC50 determinations were performed using 10 different concentrations and triplicate determinations were made at each test concentration.

5-HT2A receptor [2] = biological target: T2, 5-HT2A receptor (Homo sapiens (Human), UniProt P28223); test: IP accumulation assay, 5-HT2A; format: cell-based
Method: as §1

5-HT2C receptor [3] = biological target: T1, 5-HT2C receptor; test: DOI radioligand binding assay, 5-HT2C
Method: (§2) For the compounds of Table A, the following procedure was used. HEK293 cells stably expressing recombinant 5-HT2 receptors were harvested, suspended in ice-cold phosphate buffered saline, pH 7.4 (PBS), and then centrifuged at 48,000 g for 20 min at 4° C. The resulting cell pellet was then re-suspended in wash buffer containing 20 mM HEPES, pH 7.4 and 0.1 mM EDTA, homogenized on ice using a Brinkman Polytron, and centrifuged (48,000 g for 20 min at 4° C.). The pellet was then resuspended in 20 mM HEPES, pH 7.4, homogenized on ice, and centrifuged (48,000 g for 20 min at 4° C.). Crude membrane pellets were stored at −80° C. until used for radioligand binding assays.
(§3) For the compounds of Table A, the following procedure was used. […] Experiments comprised addition of 95 μL of assay buffer (20 mM HEPES, pH 7.4, 10 mM MgCl2), 50 μL of membranes, 50 μL of radioligand stock, and 5 μL of test compound diluted in assay buffer to 96-well microtiter plates, which were then incubated for 1 h at room temperature. Assay incubations were terminated by rapid filtration through PerkinElmer F/C filtration plates under reduced pressure using a 96-well Packard filtration apparatus, followed by washing three times with ice cold assay buffer. Plates were then dried at 45° C. for a minimum of 2 h. Finally, 25 μL of BetaScint™ scintillation cocktail was added to each well and the plates were counted in a Packard TopCount® scintillation counter. In each competition study, test compounds were dosed at ten concentrations with triplicate determinations at each test concentration.

5-HT2A receptor [4] = biological target: T2, 5-HT2A receptor; test: DOI radioligand binding assay, 5-HT2A
Method: as §2, §3

5-HT2B receptor [5] = biological target: T3, 5-HT2B receptor (Homo sapiens (Human), UniProt P41595); test: DOI radioligand binding assay, 5-HT2B; conditions: [125I]DOI competition, HEK293 cell membranes
Method: as §2, §3

5-HT2B receptor [6] = biological target: T3, 5-HT2B receptor; test: IP accumulation assay, 5-HT2B; format: cell-based
Method: as §1

[7] = IP accumulation, HEK293 cells, 2 h at RT, read-out: EC50 5HT2C
[8] = IP accumulation, HEK293 cells, 2 h at 37° C., read-out: EC50 5HT2A
[9] = [125I]DOI competition, HEK293 cell membranes, read-out: DOI Binding 5HT2A

T2 sequence (P28223 whole entry): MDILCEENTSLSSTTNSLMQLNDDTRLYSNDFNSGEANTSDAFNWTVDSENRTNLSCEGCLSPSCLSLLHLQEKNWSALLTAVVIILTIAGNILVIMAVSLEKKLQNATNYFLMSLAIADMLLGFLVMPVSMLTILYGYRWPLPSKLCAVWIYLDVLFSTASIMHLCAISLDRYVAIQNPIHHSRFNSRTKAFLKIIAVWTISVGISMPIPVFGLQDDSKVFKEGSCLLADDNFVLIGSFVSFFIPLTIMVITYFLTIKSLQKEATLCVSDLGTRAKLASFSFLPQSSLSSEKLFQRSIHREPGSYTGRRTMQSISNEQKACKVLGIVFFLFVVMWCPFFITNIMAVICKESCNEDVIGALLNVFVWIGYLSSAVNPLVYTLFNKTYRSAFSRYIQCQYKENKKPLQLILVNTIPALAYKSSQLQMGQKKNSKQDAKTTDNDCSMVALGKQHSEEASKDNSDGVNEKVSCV
T1 sequence (P28335 33-458): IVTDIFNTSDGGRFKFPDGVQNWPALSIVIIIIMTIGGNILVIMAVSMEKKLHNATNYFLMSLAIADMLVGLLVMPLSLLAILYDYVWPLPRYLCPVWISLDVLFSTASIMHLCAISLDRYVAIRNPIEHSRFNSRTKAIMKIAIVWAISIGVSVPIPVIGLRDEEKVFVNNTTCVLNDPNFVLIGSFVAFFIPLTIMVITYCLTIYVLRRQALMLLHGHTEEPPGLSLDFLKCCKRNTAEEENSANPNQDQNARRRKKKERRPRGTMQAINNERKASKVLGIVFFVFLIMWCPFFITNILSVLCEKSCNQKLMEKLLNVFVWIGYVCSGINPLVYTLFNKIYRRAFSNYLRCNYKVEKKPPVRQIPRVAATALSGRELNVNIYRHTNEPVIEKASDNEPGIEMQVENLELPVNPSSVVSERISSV
T3 sequence (P41595 whole entry): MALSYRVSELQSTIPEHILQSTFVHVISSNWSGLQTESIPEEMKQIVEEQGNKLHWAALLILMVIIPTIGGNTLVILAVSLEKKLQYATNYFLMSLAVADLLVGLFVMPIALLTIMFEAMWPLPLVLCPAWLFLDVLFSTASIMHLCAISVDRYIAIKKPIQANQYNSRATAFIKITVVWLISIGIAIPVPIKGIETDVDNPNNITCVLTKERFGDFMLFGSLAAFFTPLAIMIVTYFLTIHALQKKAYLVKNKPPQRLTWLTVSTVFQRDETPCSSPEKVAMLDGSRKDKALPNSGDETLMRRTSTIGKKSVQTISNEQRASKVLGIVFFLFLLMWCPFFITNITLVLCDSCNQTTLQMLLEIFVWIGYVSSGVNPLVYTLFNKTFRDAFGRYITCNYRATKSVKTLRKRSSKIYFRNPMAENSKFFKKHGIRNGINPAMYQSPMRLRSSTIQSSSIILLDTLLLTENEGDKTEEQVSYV

Row | Structure (SMILES) | Ki (5-HT2C receptor [3]) [nM] | Ki (5-HT2A receptor [4]; [9]) [nM] | Ki (5-HT2B receptor [5]) [nM] | further results
1 | c1ccc(Cc2ccnc3c2CC[C@@H]2CNCCN32)cc1 [Compound 106, (R)-4-benzyl-6,6a,7,8,9,10-hexahydro-5H-pyrazino[1,2-a][1,8]naphthyridine] | 0.277 | 1.19 |  | EC50 (5-HT2C receptor [1]; [7]): 0.116 nM; EC50 (5-HT2A receptor [2]; [8]): 53.2 nM
2 | COCCc1ccnc2c1CC[C@@H]1CNCCN21 [Compound 107, (R)-4-(2-methoxyethyl)-6,6a,7,8,9,10-hexahydro-5H-pyrazino[1,2-a][1,8]naphthyridine] |  | 99.5 | 177 | 
3 | CCCCCc1ccnc2c1CC[C@@H]1CNCCN21 [Compound 108, (R)-4-pentyl-6,6a,7,8,9,10-hexahydro-5H-pyrazino[1,2-a][1,8]naphthyridine] | 0.401 | 2.3 |  | 
4 | CCc1ccnc2c1CC[C@@H]1CNCCN21 [Compound 110, (R)-4-ethyl-6,6a,7,8,9,10-hexahydro-5H-pyrazino[1,2-a][1,8]naphthyridine] | 0.562 | 16.1 |  | 
5 | CC(C)c1ccnc2c1CC[C@@H]1CNCCN21 [Compound 111, (R)-4-isopropyl-6,6a,7,8,9,10-hexahydro-5H-pyrazino[1,2-a][1,8]naphthyridine] | 0.874 |  |  | 
6 | CCCCc1ccnc2c1CC[C@@H]1CNCCN21 [Compound 112, (R)-4-butyl-6,6a,7,8,9,10-hexahydro-5H-pyrazino[1,2-a][1,8]naphthyridine] | 0.5 | 10.6 |  | 
7 | CCCc1ccnc2c1CC[C@@H]1CNCCN21 [Compound 113, (R)-4-propyl-6,6a,7,8,9,10-hexahydro-5H-pyrazino[1,2-a][1,8]naphthyridine] | 0.162 | 6.85 |  | EC50 (5-HT2C receptor [1]): 0.0656 nM
8 | Fc1cccc(Cc2ccnc3c2CC[C@@H]2CNCCN32)c1 [Compound 115, (R)-4-(3-fluorobenzyl)-6,6a,7,8,9,10-hexahydro-5H-pyrazino[1,2-a][1,8]naphthyridine] | 0.195 |  |  | EC50 (5-HT2C receptor [1]; [7]): 0.19 nM; EC50 (5-HT2A receptor [2]; [8]): 37.2 nM; Ki (5-HT2A receptor [4]): 0.506 nM
9 | Fc1ccccc1Cc1ccnc2c1CC[C@@H]1CNCCN21 [Compound 116, (R)-4-(2-fluorobenzyl)-6,6a,7,8,9,10-hexahydro-5H-pyrazino[1,2-a][1,8]naphthyridine] | 0.304 | 2.65 |  | EC50 (5-HT2C receptor [1]): 0.314 nM; EC50 (5-HT2A receptor [2]): 152 nM
10 | c1csc(-c2ccnc3c2CC[C@@H]2CNCCN32)c1 [Compound 126, (R)-4-(thiophen-2-yl)-6,6a,7,8,9,10-hexahydro-5H-pyrazino[1,2-a][1,8]naphthyridine] |  | 68.8 | 122 | 
11 | c1cc(CC2CCCCO2)c2c(n1)N1CCNC[C@H]1CC2 (stereo partly drawn) [Compound 132, (6aR)-4-((tetrahydro-2H-pyran-2-yl)methyl)-6,6a,7,8,9,10-hexahydro-5H-pyrazino[1,2-a][1,8]naphthyridine] |  | 212 | 1090 | 
12 | c1cc(COCC2CCOCC2)c2c(n1)N1CCNC[C@H]1CC2 [Compound 133, (R)-4-(((tetrahydro-2H-pyran-4-yl)methoxy)methyl)-6,6a,7,8,9,10-hexahydro-5H-pyrazino[1,2-a][1,8]naphthyridine] |  | 1670 | 844 | Ki (5-HT2C receptor [3]; read-out: DOI Binding 5HT2C): 1250 nM
13 | N#CCCc1ccnc2c1CC[C@@H]1CNCCN21 [Compound 142, (R)-3-(6,6a,7,8,9,10-hexahydro-5H-pyrazino[1,2-a][1,8]naphthyridin-4-yl)propanenitrile] |  | 840 | 665 | 
14 | C/C=C/Cc1ccnc2c1CC[C@@H]1CNCCN21 [Compound 144, (R,E)-4-(but-2-en-1-yl)-6,6a,7,8,9,10-hexahydro-5H-pyrazino[1,2-a][1,8]naphthyridine] | 0.548 | 5.01 |  | 
15 | CC(C)OCc1ccnc2c1CC[C@@H]1CNCCN21 [Compound 145, (R)-4-(isopropoxymethyl)-6,6a,7,8,9,10-hexahydro-5H-pyrazino[1,2-a][1,8]naphthyridine] |  | 222 | 209 | 
16 | Clc1ccc(-c2ccnc3c2CC[C@@H]2CNCCN32)nc1 [Compound 146, (R)-4-(5-chloropyridin-2-yl)-6,6a,7,8,9,10-hexahydro-5H-pyrazino[1,2-a][1,8]naphthyridine] |  | 5390 | 1020 | Ki (5-HT2C receptor [3]; read-out: DOI Binding 5HT2C): 3110 nM
17 | c1cc2c(c(CC3CCC3)n1)CC[C@@H]1CNCCN21 [Compound 154, (R)-7-(cyclobutylmethyl)-2,3,4,4a,5,6-hexahydro-1H-pyrazino[1,2-a][1,6]naphthyridine] |  |  |  | EC50 (5-HT2B receptor [6]): ≥ 100000 nM; EC50 (5-HT2C receptor [1]): 5580 nM; EC50 (5-HT2A receptor [2]): ≥ 100000 nM
18 | c1cc2c(cn1)CC[C@@H]1CNCCN21 [Compound 155, (R)-2,3,4,4a,5,6-hexahydro-1H-pyrazino[1,2-a][1,6]naphthyridine] |  |  |  | EC50 (5-HT2B receptor [6]): ≥ 100000 nM; EC50 (5-HT2C receptor [1]): 100000 nM; EC50 (5-HT2A receptor [2]): ≥ 100000 nM
19 | Brc1ccnc2c1CC[C@@H]1CNCCCN21 [Compound 156, (R)-4-bromo-5,6,6a,7,8,9,10,11-octahydro-[1,4]diazepino[1,2-a][1,8]naphthyridine] |  | 1390 | 127 | 
20 | FC(F)(F)CCc1ccnc2c1CC[C@@H]1CNCCCN21 [Compound 157, (R)-4-(3,3,3-trifluoropropyl)-5,6,6a,7,8,9,10,11-octahydro-[1,4]diazepino[1,2-a][1,8]naphthyridine] |  | 1140 | 721 | 
21 | CSc1nc(Cl)c2c(n1)N1CCCNC[C@H]1CC2 [Compound 159, (R)-4-chloro-2-(methylthio)-5,6,6a,7,8,9,10,11-octahydropyrimido[5′,4′:5,6]pyrido[1,2-a][1,4]diazepine] |  | 12300 | 272 | Ki (5-HT2C receptor [3]; read-out: DOI Binding 5HT2C): 1600 nM
22 | Clc1ncnc2c1CC[C@@H]1CNCCCN21 [Compound 160, (R)-4-chloro-5,6,6a,7,8,9,10,11-octahydropyrimido[5′,4′:5,6]pyrido[1,2-a][1,4]diazepine] |  | 100000 | 1830 | Ki (5-HT2C receptor [3]; read-out: DOI Binding 5HT2C): 5560 nM
23 | CCc1c(CCC#N)cnc2c1CC[C@@H]1CNCCN21 [Compound 162, (R)-3-(4-ethyl-6,6a,7,8,9,10-hexahydro-5H-pyrazino[1,2-a][1,8]naphthyridin-3-yl)propanenitrile] |  | 1260 | 251 | 
24 | CCc1c(CC2CCCCC2)cnc2c1CC[C@@H]1CNCCN21 [Compound 164, (R)-3-(cyclohexylmethyl)-4-ethyl-6,6a,7,8,9,10-hexahydro-5H-pyrazino[1,2-a][1,8]naphthyridine] |  | 703 |  | Ki (5-HT2C receptor [3]; read-out: DOI Binding 5HT2C): 233 nM
25 | CCc1c(CC2CCCCO2)cnc2c1CC[C@@H]1CNCCN21 (stereo partly drawn) [Compound 165, (6aR)-4-ethyl-3-((tetrahydro-2H-pyran-2-yl)methyl)-6,6a,7,8,9,10-hexahydro-5H-pyrazino[1,2-a][1,8]naphthyridine] |  | 890 |  | Ki (5-HT2C receptor [3]; read-out: DOI Binding 5HT2C): 570 nM
26 | CN1CCN2c3nccc(CCC(F)(F)F)c3CC[C@@H]2C1 [Compound 168, (R)-8-methyl-4-(3,3,3-trifluoropropyl)-6,6a,7,8,9,10-hexahydro-5H-pyrazino[1,2-a][1,8]naphthyridine] |  | 58 | 331 | 
27 | c1cc(CC2CCCC2)c2c(n1)N1CCNC[C@H]1CC2 [Compound 170, (R)-4-(cyclopentylmethyl)-6,6a,7,8,9,10-hexahydro-5H-pyrazino[1,2-a][1,8]naphthyridine] | 0.79 |  |  | 
28 | Brc1cncc2c1CC[C@@H]1CNCCN21 [Compound 172, (R)-4-bromo-6,6a,7,8,9,10-hexahydro-5H-pyrazino[1,2-a][1,7]naphthyridine] |  | 72.3 | 13 | 
29 | c1ncc2c(c1CC1CCCCC1)CC[C@@H]1CNCCN21 [Compound 174, (R)-4-(cyclohexylmethyl)-6,6a,7,8,9,10-hexahydro-5H-pyrazino[1,2-a][1,7]naphthyridine] |  | 107 | 140 | 
